The record followed here is US20080161306A1, “Pyrrole Derivatives as Dna Gyrase and Topoisomerase Inhibitors” (priority 2005, published 2008).

≈ marks a conversion by molar mass, not a printed value. Like-named read-outs stand apart in the source and are kept apart here.

Common to all, as to type: cell-based
In test [1] the test system is HIN446. Kind of test: Bacterial susceptibility testing in liquid media (MIC), HIN446. Particulars: strain HIN446; lowest concentration reducing growth by 80% or more; 37 degrees C., 24 hrs. The protocol:
(§1) Compounds were tested for antimicrobial activity by susceptibility testing in liquid media. Compounds were dissolved in dimethylsulfoxide and tested in 10 doubling dilutions in the susceptibility assays. The organisms used in the assay were grown overnight on suitable agar media and then suspended in a liquid medium appropriate for the growth of the organism. The suspension was a 0.5 McFarland and a further 1 in 10 dilution was made into the same liquid medium to prepare the final organism suspension in 100 μL. Plates were incubated under appropriate conditions at 37 degrees C. for 24 hrs prior to reading. The Minimum Inhibitory Concentration was determined as the lowest drug concentration able to reduce growth by 80% or more.

In test [2] the test system is Streptococcus pneumoniae. Kind of test: Bacterial susceptibility testing in liquid media (MIC), Streptococcus pneumoniae. Particulars: lowest concentration reducing growth by 80% or more, 37 degrees C., 24 hrs; for MIC: Streptococcus pneumoniae. As to the method: as §1
The test system of test [3] is SAU516. Put plainly: Bacterial susceptibility testing in liquid media (MIC), SAU516. The conditions noted are these: strain SAU516; lowest concentration reducing growth by 80% or more; 37 degrees C., 24 hrs. As to the method:
as §1

Setting [4] is: strain SPN548, read-out: MIC SPN548.

As for `CO[C@@H]1C=C(c2cccc(C(=O)O)c2)CC[C@@H]1NC(=O)c1[nH]c(C)c(Cl)c1Cl` (relative stereo) [Example 11, 3-((3,4-Cis)-4-{[(3,4-Dichloro-5-methyl-1H-pyrrol-2-yl)carbonyl]amino}-3-methoxycyclohex-1-en-1-yl)benzoic acid], in test [1], the “MIC HIN446” value came out at 2 µg/mL (≈ 4.72 µM). In addition, the “MIC SPN548” value in test [2] (strain SPN548) stood at 0.13 µg/mL (≈ 0.307 µM). In addition, the “MIC SAU516” value in test [3] is 0.5 µg/mL (≈ 1.18 µM).
One may read the MIC as the smallest concentration in the dilution series that meets the test's criterion for growth inhibition. Take `Cc1[nH]c(C(=O)N[C@H]2CC[C@H](c3cccc(C(=O)O)c3)CC2)c(Cl)c1Cl` [Example 5, trans-3-(4-{[(3,4-Dichloro-5-methyl-1H-pyrrol-2-yl)carbonyl]amino}cyclohexyl)benzoic acid]: the MIC in test [1] is 16 µg/mL (≈ 40.5 µM); in test [2] (setting [4]), 4 µg/mL (≈ 10.1 µM); in test [3] it was 4 µg/mL (≈ 10.1 µM).
For `Cc1[nH]c(C(=O)NC2CC=C(c3cccc(C(=O)O)c3)CC2)c(Cl)c1Cl` (stereo not shown) [Example 16, 5-(4-{[(3,4-Dichloro-5-methyl-1H-pyrrol-2-yl)carbonyl]amino}cyclohex-1-en-1-yl)benzoic acid], the MIC in test [1] was determined as 4 µg/mL (≈ 10.2 µM); in test [2] (read-out: MIC against Streptococcus pneumoniae), 1 µg/mL (≈ 2.54 µM); in test [2] (setting [4]) it was 1 µg/mL (≈ 2.54 µM); in test [3] it was 2 µg/mL (≈ 5.09 µM).
